According to article PMC4029159 (Journal of medicinal chemistry, 2013):
Where “and” joins values, the source holds several entries; their conditions need not be identical. Identical values can stand only once.

Columns and labels:
HDAC1 = HDAC1 (Homo sapiens, UniProt Q13547); test: HDAC inhibition by SAMDI mass spectrometry, HDAC1; type: biochemical
HDAC6 = biological target: T1, HDAC6 (Homo sapiens, UniProt Q9UBN7); test: HDAC inhibition by SAMDI mass spectrometry, HDAC6; type: biochemical
T1 sequence (Q9UBN7 1-1215): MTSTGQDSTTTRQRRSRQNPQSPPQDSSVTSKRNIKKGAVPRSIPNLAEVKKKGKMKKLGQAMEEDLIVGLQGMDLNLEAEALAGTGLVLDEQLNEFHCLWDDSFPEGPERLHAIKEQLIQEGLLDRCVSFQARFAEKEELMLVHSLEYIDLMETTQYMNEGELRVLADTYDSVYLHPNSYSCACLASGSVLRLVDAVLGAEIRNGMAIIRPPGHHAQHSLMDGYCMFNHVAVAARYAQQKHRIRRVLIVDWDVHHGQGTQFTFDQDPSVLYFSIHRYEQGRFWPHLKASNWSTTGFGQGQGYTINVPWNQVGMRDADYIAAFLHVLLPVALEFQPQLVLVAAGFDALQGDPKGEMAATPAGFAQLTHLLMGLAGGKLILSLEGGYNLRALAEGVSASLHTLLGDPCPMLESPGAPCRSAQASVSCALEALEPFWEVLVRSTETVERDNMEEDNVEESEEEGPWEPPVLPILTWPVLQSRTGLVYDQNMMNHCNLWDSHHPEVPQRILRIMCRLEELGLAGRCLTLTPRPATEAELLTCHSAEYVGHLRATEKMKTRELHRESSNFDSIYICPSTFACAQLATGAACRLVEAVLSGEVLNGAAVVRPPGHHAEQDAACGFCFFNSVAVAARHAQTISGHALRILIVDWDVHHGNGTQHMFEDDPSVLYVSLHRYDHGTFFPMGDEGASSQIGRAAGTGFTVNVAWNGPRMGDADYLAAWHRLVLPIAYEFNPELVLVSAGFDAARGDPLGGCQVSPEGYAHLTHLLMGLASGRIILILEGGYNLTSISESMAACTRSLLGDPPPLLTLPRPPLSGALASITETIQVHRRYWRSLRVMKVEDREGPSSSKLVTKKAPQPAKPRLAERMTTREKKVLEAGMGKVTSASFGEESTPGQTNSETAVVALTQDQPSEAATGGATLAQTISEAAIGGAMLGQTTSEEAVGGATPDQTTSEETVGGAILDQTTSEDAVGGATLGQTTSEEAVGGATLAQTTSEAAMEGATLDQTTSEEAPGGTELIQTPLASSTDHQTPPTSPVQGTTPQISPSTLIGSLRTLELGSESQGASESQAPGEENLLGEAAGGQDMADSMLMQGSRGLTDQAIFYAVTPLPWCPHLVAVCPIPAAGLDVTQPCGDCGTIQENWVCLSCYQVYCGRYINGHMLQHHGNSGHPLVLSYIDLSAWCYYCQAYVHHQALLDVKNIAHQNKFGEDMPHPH

DU-145 = test: Cell viability assay; type: cell-based; settings: for Fold less cytotoxic than 14e, DU145: compared with 14e
LNCaP = test: Cell viability assay; type: cell-based
MMP1 = biological target: T2, MMP1 (Homo sapiens, UniProt P03956); test: MMP assay; type: biochemical; settings: 10µM
T2 sequence (P03956 100-269 limits assumed): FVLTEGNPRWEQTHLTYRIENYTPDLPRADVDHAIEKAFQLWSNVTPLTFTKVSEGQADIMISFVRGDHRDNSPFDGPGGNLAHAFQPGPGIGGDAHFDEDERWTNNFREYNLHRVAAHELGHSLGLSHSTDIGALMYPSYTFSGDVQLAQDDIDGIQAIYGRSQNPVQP

MMP2 = MMP2 (Homo sapiens, UniProt P08253); test: MMP assay; type: biochemical; settings: 10µM
MMP3 = MMP3 (Homo sapiens, UniProt P08254); test: MMP assay; type: biochemical; settings: 10µM
MMP7 = biological target: T3, MMP7 (Homo sapiens, UniProt P09237); test: MMP assay; type: biochemical; settings: 10µM
T3 sequence (P09237 95-267): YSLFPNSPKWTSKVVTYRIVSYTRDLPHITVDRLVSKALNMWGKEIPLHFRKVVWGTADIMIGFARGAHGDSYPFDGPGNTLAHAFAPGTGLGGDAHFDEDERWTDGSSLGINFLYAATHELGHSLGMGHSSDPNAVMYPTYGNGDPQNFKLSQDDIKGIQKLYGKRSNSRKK

MMP9 = MMP9 (Homo sapiens, UniProt P14780); test: MMP assay; type: biochemical; settings: 10µM
MMP14 = MMP14 (Homo sapiens, UniProt P50281); test: MMP assay; type: biochemical; settings: 10µM
MMP13 = MMP13 (Homo sapiens, UniProt P45452); test: MMP assay; type: biochemical; settings: 10µM
[1] = test system: tubulin acetylation (HDAC6 inhibition) in LNCaP cell line; test: Western blot analysis for tubulin acetylation; type: cell-based; settings: LNCaP cells, 4 hours, 20 µM and IC50 concentration
Jurkat = test: Cell viability assay; type: cell-based
Jurkat J.γ = test: Cell viability assay; type: cell-based

Chain of MMP9 (P14780 107-444 limits assumed): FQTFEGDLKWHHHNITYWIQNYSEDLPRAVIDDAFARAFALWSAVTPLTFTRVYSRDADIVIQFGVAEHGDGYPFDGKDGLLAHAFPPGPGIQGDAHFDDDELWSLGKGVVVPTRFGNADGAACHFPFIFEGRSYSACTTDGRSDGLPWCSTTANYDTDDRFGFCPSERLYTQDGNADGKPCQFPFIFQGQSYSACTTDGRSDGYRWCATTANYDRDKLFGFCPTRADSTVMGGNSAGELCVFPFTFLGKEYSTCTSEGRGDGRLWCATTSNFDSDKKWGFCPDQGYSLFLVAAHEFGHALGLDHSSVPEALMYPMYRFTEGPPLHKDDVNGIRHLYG
Chain of MMP2 (P08253 110-446 limits assumed): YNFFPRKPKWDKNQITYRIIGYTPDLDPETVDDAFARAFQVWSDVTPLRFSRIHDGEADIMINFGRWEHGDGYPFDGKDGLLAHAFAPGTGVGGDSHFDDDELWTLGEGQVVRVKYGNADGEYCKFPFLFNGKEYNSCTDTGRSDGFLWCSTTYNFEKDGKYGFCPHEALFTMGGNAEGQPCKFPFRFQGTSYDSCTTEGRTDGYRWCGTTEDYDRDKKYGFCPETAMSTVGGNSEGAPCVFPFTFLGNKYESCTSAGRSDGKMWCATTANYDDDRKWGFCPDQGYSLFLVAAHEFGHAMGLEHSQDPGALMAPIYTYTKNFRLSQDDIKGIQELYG
Chain of MMP3 (P08254 100-272 limits assumed): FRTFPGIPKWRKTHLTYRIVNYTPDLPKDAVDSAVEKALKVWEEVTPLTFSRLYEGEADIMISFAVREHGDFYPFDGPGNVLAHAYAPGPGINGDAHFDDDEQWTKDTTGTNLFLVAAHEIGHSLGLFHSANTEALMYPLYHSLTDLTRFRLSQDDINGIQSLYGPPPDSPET
Chain of HDAC1 (Q13547 whole entry): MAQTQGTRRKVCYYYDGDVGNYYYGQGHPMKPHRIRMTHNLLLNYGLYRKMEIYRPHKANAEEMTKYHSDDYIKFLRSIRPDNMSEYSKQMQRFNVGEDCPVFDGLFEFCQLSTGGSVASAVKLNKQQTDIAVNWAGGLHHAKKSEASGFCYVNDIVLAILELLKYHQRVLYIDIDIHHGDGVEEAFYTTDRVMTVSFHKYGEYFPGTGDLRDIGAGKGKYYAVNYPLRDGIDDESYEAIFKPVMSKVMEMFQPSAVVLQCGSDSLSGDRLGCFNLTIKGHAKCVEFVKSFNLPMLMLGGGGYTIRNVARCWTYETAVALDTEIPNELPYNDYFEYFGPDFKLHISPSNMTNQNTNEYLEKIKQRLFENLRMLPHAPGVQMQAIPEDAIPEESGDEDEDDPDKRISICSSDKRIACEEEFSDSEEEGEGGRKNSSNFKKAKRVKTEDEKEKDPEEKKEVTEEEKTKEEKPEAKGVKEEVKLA

| SMILES | HDAC1 inhibition, in words (HDAC1) | Effect on MMP1 activity (MMP1) | Effect on MMP2 activity (MMP2) | Effect on MMP3 activity (MMP3) | Effect on MMP7 activity (MMP7) | Effect on MMP9 activity (MMP9) | Effect on MMP14 activity (MMP14) | Effect on MMP13 activity (MMP13) | Tubulin acetylation level (Western blot) [1] | Fold less cytotoxic than 14e, DU145 (DU-145) | Activity against Jurkat Jγ, in words (Jurkat J.γ) | further results |
| --- | --- | --- | --- | --- | --- | --- | --- | --- | --- | --- | --- | --- |
| N#Cc1cccc(-c2cn(CCCCCn3cccc(O)c3=S)nn2)c1 [Compound 14e, 1-(3-Benzonitrile)triazolylpentyl-3-hydroxypyridin-2-thione] | inactive | inactive | inactive | inactive | inactive | inactive | inactive | halved | increased tubulin acetylation but to a lesser extent than SAHA |  |  | HDAC6 potency, fold more effective than 14b (HDAC6; relative to 14b): 3 fold; HDAC6 potency, fold more effective than 10d (HDAC6; relative to 10d): 2.5 fold and 3 fold; Fold more potent than 10d, DU145 (DU-145; relative to 10d): about 2 fold; Fold more potent than 10d, LNCaP (LNCaP; relative to 10d): about 2 fold |
| Oc1cccn(CCCCCCCn2cc(-c3ccccc3)nn2)c1=S [Compound 10f, 1-Phenyltriazolylheptyl-3-hydroxypyridin-2-thione] |  |  |  |  |  |  |  |  |  | 3 fold |  | Fold less cytotoxic than 10d, DU145 (DU-145; compared with 10d): 2 fold; Fold less cytotoxic than 14e, LNCaP (LNCaP; compared with 14e): 3 fold; Fold less cytotoxic than 10d, LNCaP (LNCaP; compared with 10d): 2 fold; Fold less cytotoxic than 14e, wild type Jurkat (Jurkat; relative to 14e): 3 fold; Fold less cytotoxic than 10d, wild type Jurkat (Jurkat; relative to 10d): 3 fold |
| Cc1ccccc1-c1cn(CCCCCn2cccc(O)c2=S)nn1 [Compound 14c, 1-(2-Tolyl)triazolylpentyl-3-hydroxypyridin-2-thione] |  |  |  |  |  |  |  |  |  | 2 fold |  |  |
| Oc1cccn(CCCCCn2cc(-c3ccccc3)nn2)c1=S [Compound 10d, 1-Phenyltriazolylpentyl-3-hydroxypyridin-2-thione] | inactive | inactive | inactive | inactive | inactive | inactive | inactive | halved | increased tubulin acetylation but to a lesser extent than SAHA |  |  | IC50 (Jurkat J.γ; Homo sapiens, Jurkat, 72 h, read-out: Cellular IC50 Jurkat J.γ, 72 hours, MTS): 1 µM |
| O=C(CCCCCCC(=O)Nc1ccccc1)NO [SAHA, suberoylanilide hydroxamic acid] |  |  |  |  |  |  |  |  |  |  | inactive |  |
| CN1CCc2c(c3ccccc3n2Cc2ccc(C(=O)NO)cc2)C1 [Tubastatin A, reference compound] |  |  |  |  |  |  |  |  |  |  | inactive | Fold less potent than 10d and 14e, LNCaP (LNCaP; relative to 10d and 14e): 2 to 3 fold |
